Assay [1] deals with T1, glucosylceramide synthase (Homo sapiens, UniProt Q16739).
T1 construct: Microsomes were isolated from A375 human melanoma cells; endogenous in cells; host or cells: A375 human melanoma cells (microsomal fraction, 100,000 g pellet)
T1 sequence (Q16739 1-394): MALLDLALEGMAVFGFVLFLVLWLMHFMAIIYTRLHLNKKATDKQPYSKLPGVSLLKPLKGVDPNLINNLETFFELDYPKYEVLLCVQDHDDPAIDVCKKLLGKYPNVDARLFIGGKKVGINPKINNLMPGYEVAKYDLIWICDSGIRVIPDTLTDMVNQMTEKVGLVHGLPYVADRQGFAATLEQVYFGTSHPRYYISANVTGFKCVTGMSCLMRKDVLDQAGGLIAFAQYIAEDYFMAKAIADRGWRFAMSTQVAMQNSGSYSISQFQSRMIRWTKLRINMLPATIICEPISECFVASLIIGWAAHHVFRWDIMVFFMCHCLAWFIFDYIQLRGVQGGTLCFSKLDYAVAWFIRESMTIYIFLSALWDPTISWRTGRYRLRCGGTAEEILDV
Nature of the assay: microsomal assay measuring conversion of ceramide to glucosylceramide by HPLC (GCS IC50). The assay is classed as biochemical. The following applies: concentration causing 50% inhibition of glucosylceramide synthase activity. The essentials:
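IC50 is the compound concentration halving glucosylceramide synthase activity. Activity was measured in microsomes, with HPLC quantifying glucosylceramide formed from ceramide.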

Assay [2] concerns GM3 expression on the cell surface, B16 mouse melanoma cells. Nature of the assay: cell based phenotypic assay, cell surface GM3 by antibody mediated immunofluorescence, B16 (GM3 B16 IC50). The following applies: Mus musculus, B16 mouse melanoma cells; 50% inhibition of GM3 expression on the cell surface; read-out: GM3 B16 IC50. The essentials:
(§1)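 Both lines undergo the phenotypic GM3 assay, and viability is recorded from that same cell-based run.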

Assay [3] concerns GM3 expression on the cell surface, C32 human melanoma cells. Nature of the assay: cell based phenotypic assay, cell surface GM3 by antibody mediated immunofluorescence, C32 (GM3 C32 IC50). The following applies: Homo sapiens, C32 human melanoma cells; 50% inhibition of GM3 expression on the cell surface; read-out: GM3 C32 IC50. The essentials: as §1
Assay [4] concerns B16 mouse melanoma cells. Nature of the assay: cell viability in the B16 cell-based assay (Viability, B16 IC50). The conditions noted are these: Mus musculus, B16, B16 cells; concentration causing 50% cell death; values greater than 10 represent a lack of cell death; read-out: Viability, B16 IC50. The essentials: (§2)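 Viability readouts were run alongside the GM3 cell-surface assay in the same B16 and C32 cultures. A figure above 10 indicates no cell death.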

Assay [5] has as its system C32 human melanoma cells. Nature of the assay: cell viability in the C32 cell-based assay (Viability, C32 IC50). The conditions noted are these: Homo sapiens, C32, C32 cells; concentration causing 50% cell death; values greater than 10 represent a lack of cell death; read-out: Viability, C32 IC50. The gist of the method: as §2

On to `CC1CN(c2cccc(-c3ccccc3)c2)CCN1C(=O)NC1(C)CCN2CCC1CC2` (centres unmarked) [Example 30, 4-([1,1′-Biphenyl]-3-yl)-2-methyl-N-(4-methyl-1-azabicyclo[3.2.2]nonan-4-yl)piperazine-1-carboxamide], for which the IC50 in assay [1] turned out to be 376 nM; in assay [2], 864 nM; in assay [3], 63.9 nM; in assay [4], 7.64 µM; in assay [5] it was 1000 nM.

For `CC1CN(C(=O)NC2(C)CCN3CCC2CC3)CCN1c1cccc(-c2ccccc2)c1` (centres unmarked) [Example 31, 4-([1,1′-Biphenyl]-3-yl)-3-methyl-N-(4-methyl-1-azabicyclo[3.2.2]nonan-4-yl)piperazine-1-carboxamide], the IC50 is 4.06 nM in assay [1]; 70.7 nM in assay [2]; 1.51 nM in assay [3]; 7.62 µM in assay [4]; 1000 nM in assay [5].

For `CC1(NC(=O)C2CCN(c3cccc(-c4ccc(F)cc4)c3)CC2)CN2CCC1CC2` (centres unmarked) [Example 33, 1-(4′-Fluoro-[1,1′-biphenyl]-3-yl)-N-(3-methylquinuclidin-3-yl)piperidine-4-carboxamide], the IC50 in assay [1] is 22.1 nM; in assay [2], 237 nM; in assay [3], 5.02 nM; in assay [4], 6.91 µM; in assay [5], 1000 nM.

On to `CC1(NC(=O)C2CCN(c3cccc(-c4ccc(F)cc4)c3)CC2)CCN2CCC1CC2` (centres unmarked) [Example 34, 1-(4′-Fluoro-[1,1′-biphenyl]-3-yl)-N-(4-methyl-1-azabicyclo[3.2.2]nonan-4-yl)piperidine-4-carboxamide], for which the IC50 is 4.78 nM in assay [1]; 79 nM in assay [2]; 0.872 nM in assay [3]; 4.72 µM in assay [4]; 316 nM in assay [5].

For `CC1(NC(=O)C2CCN(c3cccc(-c4ccccc4)c3)CC2)CN2CCC1CC2` (centres unmarked) [Example 35, 1-([1,1′-Biphenyl]-3-yl)-N-(3-methylquinuclidin-3-yl)piperidine-4-carboxamide], the IC50 in assay [1] is 49.6 nM; in assay [2], 149 nM; in assay [3] it was 7.11 nM; in assay [4], 7.31 µM; in assay [5], 1000 nM.

For `CC1(NC(=O)C2CCN(c3cccc(-c4ccccc4)c3)CC2)CCN2CCC1CC2` (centres unmarked) [Example 36, 1-([1,1′-Biphenyl]-3-yl)-N-(4-methyl-1-azabicyclo[3.2.2]nonan-4-yl)piperidine-4-carboxamide], the IC50 in assay [1] worked out at 10.3 nM; in assay [2] it was 136 nM; in assay [3], 2.5 nM; in assay [4], 7.57 µM; in assay [5] it was 1000 nM.

In the case of `CC1(NC(=O)C2CCN(c3ccc(-c4ccccc4)cc3)CC2)CN2CCC1CC2` (centres unmarked) [Example 37, 1-([1,1′-Biphenyl]-4-yl)-N-(3-methylquinuclidin-3-yl)piperidine-4-carboxamide], the IC50 in assay [1] came out at 1550 nM; in assay [2] it was 1800 nM; in assay [3], 131 nM; in assay [4] it was 7.05 µM; in assay [5], 6900 nM.

Consider `CC1(NC(=O)C2CCN(c3ccc(-c4ccccc4)cc3)CC2)CCN2CCC1CC2` (centres unmarked) [Example 38, 1-([1,1′-Biphenyl]-4-yl)-N-(4-methyl-1-azabicyclo[3.2.2]nonan-4-yl)piperidine-4-carboxamide], for which the IC50 in assay [1] was determined as 1050 nM; in assay [2] it was 2600 nM; in assay [3], 89.4 nM; in assay [4] it was 6.62 µM; in assay [5], 6740 nM.

For `CC1(NC(=O)C2CCN(c3cccc(-c4ncccn4)c3)CC2)CCN2CCC1CC2` (centres unmarked) [Example 39, N-(4-Methyl-1-azabicyclo[3.2.2]nonan-4-yl)-1-(3-(pyrimidin-2-yl)phenyl)piperidine-4-carboxamide], the IC50 in assay [1] is 1800 nM; in assay [2], 7240 nM; in assay [3] it was 126 nM; in assay [4], at least 10 µM; in assay [5], 3160 nM.

Take `CC1(NC(=O)C2CCN(c3cccc(-c4cncnc4)c3)CC2)CCN2CCC1CC2` (centres unmarked) [Example 40, N-(4-Methyl-1-azabicyclo[3.2.2]nonan-4-yl)-1-(3-(pyrimidin-5-yl)phenyl)piperidine-4-carboxamide]: the IC50 in assay [1] came out at 291 nM; in assay [2] it was 5500 nM; in assay [3], 15.2 nM; in assay [4], 0.0713 µM; in assay [5], 1000 nM.

On to `CC1(NC(=O)C2CCN(c3nccc(-c4ccc(F)cc4)n3)CC2)CCN2CCC1CC2` (centres unmarked) [Example 41, 1-(4-(4-Fluorophenyl)pyrimidin-2-yl)-N-(4-methyl-1-azabicyclo[3.2.2]nonan-4-yl)piperidine-4-carboxamide], for which the IC50 in assay [1] was 1.14 nM; in assay [2] it was 9.7 nM; in assay [3], 0.124 nM; in assay [4] it was 6.44 µM; in assay [5], 20 nM.

With `CC1(NC(=O)C2CCN(c3nccc(-c4ccc(F)cc4)n3)CC2)CN2CCC1CC2` (centres unmarked) [Example 44, 1-(4-(4-Fluorophenyl)pyrimidin-2-yl)-N-(3-methylquinuclidin-3-yl)piperidine-4-carboxamide], the IC50 in assay [1] is 1.24 nM; in assay [2], 49.9 nM; in assay [3], 0.205 nM; in assay [4] it was 9.27 µM; in assay [5] it was 316 nM.

For `O=C(NC1CN2CCC1CC2)C1CCN(c2nccc(-c3ccc(F)cc3)n2)CC1` (centres unmarked) [Example 45, 1-(4-(4-Fluorophenyl)pyrimidin-2-yl)-N-(quinuclidin-3-yl)piperidine-4-carboxamide], the IC50 is 2.67 nM in assay [1]; 125 nM in assay [2]; 0.457 nM in assay [3]; at least 10 µM in assay [4]; 1000 nM in assay [5].

As for `CC1(NC(=O)C2CCN(c3cncc(-c4ccc(F)cc4)n3)CC2)CCN2CCC1CC2` (centres unmarked) [Example 46, 1-(6-(4-Fluorophenyl)pyrazin-2-yl)-N-(4-methyl-1-azabicyclo[3.2.2]nonan-4-yl)piperidine-4-carboxamide], the IC50 came to 2.79 nM in assay [1]; 76.6 nM in assay [2]; 0.425 nM in assay [3]; 7.31 µM in assay [4]; 316 nM in assay [5].

Turning to `CC1(NC(=O)C2CCN(c3cncc(-c4ccc(F)cc4)n3)CC2)CN2CCC1CC2` (centres unmarked) [Example 49, 1-(6-(4-Fluorophenyl)pyrazin-2-yl)-N-(3-methylquinuclidin-3-yl)piperidine-4-carboxamide], the IC50 came out at 4.1 nM in assay [1]; 145 nM in assay [2]; 0.822 nM in assay [3]; 8.16 µM in assay [4]; 1000 nM in assay [5].

Consider `CC1(NC(=O)C2CCN(c3ncnc(-c4ccc(F)cc4)n3)CC2)CCN2CCC1CC2` (centres unmarked) [Example 50, 1-(4-(4-Fluorophenyl)-1,3,5-triazin-2-yl)-N-(4-methyl-1-azabicyclo[3.2.2]nonan-4-yl)piperidine-4-carboxamide], for which the IC50 in assay [1] was 32.5 nM; in assay [2], 162 nM; in assay [3], 0.708 nM; in assay [4], at least 10 µM; in assay [5] it was 3160 nM.

Consider `CC1(NC(=O)C2CCN(c3ccnc(-c4ccc(F)cc4)n3)CC2)CCN2CCC1CC2` (centres unmarked) [Example 51, 1-(2-(4-Fluorophenyl)pyrimidin-4-yl)-N-(4-methyl-1-azabicyclo[3.2.2]nonan-4-yl)piperidine-4-carboxamide], for which the IC50 is 46.6 nM in assay [1]; 335 nM in assay [2]; 3.88 nM in assay [3]; 8.26 µM in assay [4]; 3160 nM in assay [5].

Take `CC1(NC(=O)N2CCC(c3cccc(-c4ccccc4)c3)CC2)CCN2CCC1CC2` (centres unmarked) [Example 52, 4-([1,1′-Biphenyl]-3-yl)-N-(4-methyl-1-azabicyclo[3.2.2]nonan-4-yl)piperidine-1-carboxamide]: the IC50 in assay [1] came out at 503 nM; in assay [2] it was 1060 nM; in assay [3], 337 nM; in assay [4], 7.36 µM; in assay [5] it was 8640 nM.

In the case of `CC1(NC(=O)N2CCC(c3ccc(-c4ccccc4)cc3)CC2)CCN2CCC1CC2` (centres unmarked) [Example 53, 4-([1,1′-Biphenyl]-4-yl)-N-(4-methyl-1-azabicyclo[3.2.2]nonan-4-yl)piperidine-1-carboxamide], the IC50 turned out to be 2210 nM in assay [1]; 1240 nM in assay [2]; 175 nM in assay [3]; 6.74 µM in assay [4]; 6290 nM in assay [5].

These data come from US12060349B2, “Glucosylceramide synthase inhibitors” (Genzyme Corporation, priority 2012, dated 2024).
